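All cell lines were grown in 96-well plates and treated with compound for 48 hours. GI50: concentration for 50% inhibition of growth.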 Calls of active or inactive are those of the source. No stated cut-off is given here; in the data, active = GI50 up to about 1.1 µM and inactive = higher.
Key:
Assay in all cases: NCI-60 cell line screen, 48 h
786-0 = system: 786-0
A498 = system: A498
A549 = system: A549
ACHN = system: ACHN
BT-549 = system: BT-549
CCRF-CEM = system: CCRF-CEM
COLO 205 = system: COLO 205
DU-145 = system: DU-145
EKVX = system: EKVX
HCC 2998 = system: HCC 2998
HCT-116 = system: HCT-116
HCT-15 = system: HCT-15
HL-60 = system: HL-60
HOP-62 = system: HOP-62
HOP-92 = system: HOP-92
HT-29 = system: HT-29
Hs-578T = system: Hs-578T
IGROV-1 = system: IGROV-1
K562 = system: K562
KM12 = system: KM12
M14 = system: M14
MCF7 = system: MCF7
MDA-MB-231 = system: MDA-MB-231
MDA-MB-435 = system: MDA-MB-435
MDA-N = system: MDA-N
MOLT-4 = system: MOLT-4
Malme-3M = system: Malme-3M
NCI-H226 = system: NCI-H226
NCI-H23 = system: NCI-H23
NCI-H460 = system: NCI-H460
NCI-H522 = system: NCI-H522
NCI/ADR-RES = system: NCI/ADR-RES
OVCAR-3 = system: OVCAR-3
OVCAR-4 = system: OVCAR-4
OVCAR-5 = system: OVCAR-5
OVCAR-8 = system: OVCAR-8
PC-3 = system: PC-3
RPMI-8226 = system: RPMI-8226
RXF 393 = system: RXF 393
SF-268 = system: SF-268
SF-295 = system: SF-295
SF-539 = system: SF-539
SK-MEL-28 = system: SK-MEL-28
SK-MEL-2 = system: SK-MEL-2
SK-MEL-5 = system: SK-MEL-5
SK-OV-3 = system: SK-OV-3
SN12C = system: SN12C
SNB-19 = system: SNB-19
SNB-75 = system: SNB-75
SW-620 = system: SW-620
T47D = system: T47D
TK-10 = system: TK-10
U-251 = system: U-251
UACC-257 = system: UACC-257
UACC-62 = system: UACC-62
UO-31 = system: UO-31
CAKI-1 = system: CAKI-1
LOX IMVI = system: LOX IMVI
SR = system: SR

Compound: CCCCCCCCCCCCO[PH](=O)OCCCCCCCCCCCC
- GI50 (786-0): > 100 µM (inactive)
- GI50 (A498): > 100 µM (inactive)
- GI50 (A549): > 100 µM (inactive)
- GI50 (ACHN): > 100 µM (inactive)
- GI50 (BT-549): > 100 µM (inactive)
- GI50 (CCRF-CEM): > 100 µM (inactive)
- GI50 (COLO 205): > 100 µM (inactive)
- GI50 (DU-145): > 100 µM (inactive)
- GI50 (EKVX): > 100 µM (inactive)
- GI50 (HCC 2998): > 100 µM (inactive)
- GI50 (HCT-116): > 100 µM (inactive)
- GI50 (HCT-15): > 100 µM
- GI50 (HL-60): > 100 µM (inactive)
- GI50 (HOP-62): > 100 µM (inactive)
- GI50 (HOP-92): > 100 µM (inactive)
- GI50 (HT-29): > 100 µM (inactive)
- GI50 (Hs-578T): > 100 µM (inactive)
- GI50 (IGROV-1): > 100 µM (inactive)
- GI50 (K562): > 100 µM (inactive)
- GI50 (KM12): 32.2 µM (inactive)
- GI50 (M14): > 100 µM (inactive)
- GI50 (MCF7): > 100 µM (inactive)
- GI50 (MDA-MB-231): > 100 µM (inactive)
- GI50 (MDA-MB-435): > 100 µM (inactive)
- GI50 (MDA-N): > 100 µM (inactive)
- GI50 (MOLT-4): > 100 µM (inactive)
- GI50 (Malme-3M): > 100 µM (inactive)
- GI50 (NCI-H226): > 100 µM (inactive)
- GI50 (NCI-H23): > 100 µM (inactive)
- GI50 (NCI-H460): > 100 µM (inactive)
- GI50 (NCI-H522): > 100 µM (inactive)
- GI50 (NCI/ADR-RES): > 100 µM (inactive)
- GI50 (OVCAR-3): > 100 µM (inactive)
- GI50 (OVCAR-4): > 100 µM (inactive)
- GI50 (OVCAR-5): > 100 µM (inactive)
- GI50 (OVCAR-8): > 100 µM (inactive)
- GI50 (PC-3): > 100 µM (inactive)
- GI50 (RPMI-8226): > 100 µM (inactive)
- GI50 (RXF 393): > 100 µM (inactive)
- GI50 (SF-268): > 100 µM (inactive)
- GI50 (SF-295): > 100 µM (inactive)
- GI50 (SF-539): > 100 µM (inactive)
- GI50 (SK-MEL-28): > 100 µM (inactive)
- GI50 (SK-MEL-2): > 100 µM (inactive)
- GI50 (SK-MEL-5): > 100 µM (inactive)
- GI50 (SK-OV-3): > 100 µM (inactive)
- GI50 (SN12C): > 100 µM (inactive)
- GI50 (SNB-19): > 100 µM (inactive)
- GI50 (SNB-75): > 100 µM (inactive)
- GI50 (SW-620): > 100 µM (inactive)
- GI50 (T47D): > 100 µM (inactive)
- GI50 (TK-10): 34.4 µM (inactive)
- GI50 (U-251): > 100 µM (inactive)
- GI50 (UACC-257): 28.3 µM (inactive)
- GI50 (UACC-62): > 100 µM (inactive)
- GI50 (UO-31): > 100 µM (inactive)

Compound: COC(=O)c1cc2c3c(c(C(C)=O)c(OC)c2[nH]1)NCC3
- GI50 (786-0): > 50 µM (inactive)
- GI50 (A498): > 50 µM (inactive)
- GI50 (ACHN): > 50 µM (inactive)
- GI50 (BT-549): > 50 µM (inactive)
- GI50 (CAKI-1): > 50 µM (inactive)
- GI50 (CCRF-CEM): > 50 µM (inactive)
- GI50 (COLO 205): > 50 µM (inactive)
- GI50 (DU-145): > 50 µM (inactive)
- GI50 (EKVX): > 50 µM (inactive)
- GI50 (HCT-116): > 50 µM (inactive)
- GI50 (HCT-15): > 50 µM
- GI50 (HL-60): > 50 µM (inactive)
- GI50 (HOP-62): > 50 µM (inactive)
- GI50 (HT-29): > 50 µM (inactive)
- GI50 (Hs-578T): > 50 µM (inactive)
- GI50 (IGROV-1): > 50 µM (inactive)
- GI50 (K562): > 50 µM (inactive)
- GI50 (KM12): > 50 µM (inactive)
- GI50 (LOX IMVI): > 50 µM (inactive)
- GI50 (M14): > 50 µM (inactive)
- GI50 (MCF7): > 50 µM (inactive)
- GI50 (MDA-MB-231): > 50 µM (inactive)
- GI50 (MDA-MB-435): > 50 µM (inactive)
- GI50 (MDA-N): > 50 µM (inactive)
- GI50 (MOLT-4): > 50 µM (inactive)
- GI50 (Malme-3M): > 50 µM (inactive)
- GI50 (NCI-H226): 34.5 µM (inactive)
- GI50 (NCI-H23): > 50 µM (inactive)
- GI50 (NCI-H460): > 50 µM (inactive)
- GI50 (NCI/ADR-RES): > 50 µM (inactive)
- GI50 (OVCAR-3): > 50 µM (inactive)
- GI50 (OVCAR-5): > 50 µM (inactive)
- GI50 (OVCAR-8): > 50 µM (inactive)
- GI50 (PC-3): > 50 µM (inactive)
- GI50 (RPMI-8226): > 50 µM (inactive)
- GI50 (RXF 393): > 50 µM (inactive)
- GI50 (SF-268): > 50 µM (inactive)
- GI50 (SF-295): > 50 µM (inactive)
- GI50 (SF-539): > 50 µM (inactive)
- GI50 (SK-MEL-2): > 50 µM (inactive)
- GI50 (SK-MEL-5): > 50 µM (inactive)
- GI50 (SK-OV-3): > 50 µM (inactive)
- GI50 (SN12C): > 50 µM (inactive)
- GI50 (SNB-19): > 50 µM (inactive)
- GI50 (SNB-75): > 50 µM (inactive)
- GI50 (SR): > 50 µM (inactive)
- GI50 (SW-620): > 50 µM (inactive)
- GI50 (T47D): > 50 µM (inactive)
- GI50 (TK-10): > 50 µM (inactive)
- GI50 (U-251): > 50 µM (inactive)
- GI50 (UACC-257): > 50 µM (inactive)
- GI50 (UACC-62): > 50 µM (inactive)
- GI50 (UO-31): > 50 µM (inactive)
